Measured values: ChEMBL document CHEMBL1201862, “PubChem BioAssay data set” (2004)
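Briefly, cells in 96-well plates were exposed to five compound concentrations for 48 h, and endpoints were estimated by linear interpolation. GI50 is the concentration that inhibits growth by half.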 The source made the active and inactive calls. Rule as the data show it: active = GI50 up to about 1.1 µM and inactive = higher.

What was measured:
Test in all cases: growth of human tumour cells (NCI), 48 h
[1] = tested on: SF-268
[2] = tested on: OVCAR-8
[3] = tested on: OVCAR-5
[4] = tested on: CAKI-1
[5] = tested on: TK-10
[6] = tested on: SF-295
[7] = tested on: LOX IMVI
[8] = tested on: SW-620
[9] = tested on: SK-MEL-2
[10] = tested on: M14
[11] = tested on: MDA-N
[12] = tested on: DU-145
[13] = tested on: NCI-H460
[14] = tested on: HT-29
[15] = tested on: HL-60
[16] = tested on: MCF7
[17] = tested on: HOP-92
[18] = tested on: SNB-75
[19] = tested on: BT-549
[20] = tested on: M19-MEL

| Structure (SMILES) | GI50 [1] | GI50 [2] | GI50 [3] | GI50 [4] | GI50 [5] | GI50 [6] | GI50 [7] | GI50 [8] | GI50 [9] | GI50 [10] | GI50 [11] | GI50 [12] | GI50 [13] | GI50 [14] | GI50 [15] | GI50 [16] | GI50 [17] | GI50 [18] | GI50 [19] | GI50 [20] |
| --- | --- | --- | --- | --- | --- | --- | --- | --- | --- | --- | --- | --- | --- | --- | --- | --- | --- | --- | --- | --- |
| O=C(CCCn1ccnc1[N+](=O)[O-])NCCn1cnc([N+](=O)[O-])n1 | > 100 µM (inactive) | > 100 µM (inactive) | > 100 µM (inactive) | > 100 µM (inactive) | > 100 µM (inactive) | > 100 µM (inactive) | > 100 µM (inactive) | > 100 µM (inactive) | > 100 µM (inactive) | > 100 µM (inactive) | > 100 µM (inactive) | > 100 µM (inactive) | > 100 µM (inactive) | > 100 µM (inactive) | > 100 µM (inactive) | > 100 µM (inactive) | > 100 µM (inactive) | > 100 µM (inactive) | > 100 µM (inactive) | – |
| CCOC1OC(C)(C=C(C#N)C#N)CCC1C (configuration not stated) | 43.2 µM (inactive) | 27.7 µM (inactive) | > 85.7 µM (inactive) | 33.2 µM (inactive) | 59.6 µM (inactive) | > 67.5 µM (inactive) | 22.8 µM (inactive) | 37.2 µM (inactive) | > 100 µM (inactive) | 35.5 µM (inactive) | 47.2 µM (inactive) | 39.2 µM (inactive) | 34.2 µM (inactive) | 27.6 µM (inactive) | 26.9 µM (inactive) | 35.2 µM (inactive) | 48.5 µM (inactive) | 14.6 µM (inactive) | 21.4 µM (inactive) | – |
| CC1(C)C2CCC(CN)(C2)C1N (configuration not stated) | > 100 µM (inactive) | > 100 µM (inactive) | > 100 µM (inactive) | > 100 µM (inactive) | > 100 µM (inactive) | > 100 µM (inactive) | > 100 µM (inactive) | > 100 µM (inactive) | > 100 µM (inactive) | > 100 µM (inactive) | > 100 µM (inactive) | > 100 µM (inactive) | 4.49 µM (inactive) | > 100 µM (inactive) | > 100 µM (inactive) | > 100 µM (inactive) | > 100 µM (inactive) | > 54.5 µM (inactive) | > 100 µM (inactive) | – |
| O=c1c2ccccc2c2nc3ccccc3nc2n1C1CCCCC1 | > 100 µM (inactive) | 86.3 µM (inactive) | > 100 µM (inactive) | > 100 µM (inactive) | > 100 µM (inactive) | 95.3 µM (inactive) | – | > 100 µM (inactive) | > 100 µM (inactive) | – | – | – | – | > 100 µM (inactive) | – | – | – | 51.9 µM (inactive) | – | > 100 µM (inactive) |
| CN1CC=C(OP(=O)(NCc2ccccc2)N(CCCl)CCCl)CC1 (configuration not stated) | > 100 µM (inactive) | > 100 µM (inactive) | > 100 µM (inactive) | > 100 µM (inactive) | > 100 µM (inactive) | > 100 µM (inactive) | > 100 µM (inactive) | > 100 µM (inactive) | > 100 µM (inactive) | > 100 µM (inactive) | > 100 µM (inactive) | > 100 µM (inactive) | > 100 µM (inactive) | 61.8 µM (inactive) | > 100 µM (inactive) | > 100 µM (inactive) | > 100 µM (inactive) | 89.3 µM (inactive) | > 100 µM (inactive) | – |
| Cc1nn(C(=O)c2ccc(Cl)cc2)c2c1C(c1ccc([N+](=O)[O-])cc1)SC(=N)N2 (configuration not stated) | > 10 µM (inactive) | > 10 µM (inactive) | > 10 µM (inactive) | > 10 µM (inactive) | > 10 µM (inactive) | > 10 µM (inactive) | > 10 µM (inactive) | > 10 µM (inactive) | > 10 µM (inactive) | > 10 µM (inactive) | > 10 µM (inactive) | > 10 µM (inactive) | > 10 µM (inactive) | > 10 µM (inactive) | > 10 µM (inactive) | > 10 µM (inactive) | > 10 µM (inactive) | > 10 µM (inactive) | > 10 µM (inactive) | – |
| O=C1C(c2c(O)[nH]c3ccc(Br)cc23)=Nc2ccccc21 | 9.62 µM (inactive) | 6.78 µM (inactive) | 11.9 µM (inactive) | 2.65 µM (inactive) | 13.4 µM (inactive) | 15.5 µM (inactive) | 8.55 µM (inactive) | 12.7 µM (inactive) | 11.9 µM (inactive) | 11.3 µM (inactive) | 14 µM (inactive) | 6.81 µM (inactive) | 12.7 µM (inactive) | 4.28 µM (inactive) | 96.2 µM (inactive) | 1.76 µM (inactive) | 16.6 µM (inactive) | 11.2 µM (inactive) | 19.5 µM (inactive) | – |
| OCCCCCCCCCCCOc1ccc(C2OCC3(CC=CCC3)CO2)cc1 (configuration not stated) | 17.9 µM (inactive) | 17.2 µM (inactive) | 19.3 µM (inactive) | 17.4 µM (inactive) | 16.9 µM (inactive) | 17.6 µM (inactive) | 11.7 µM (inactive) | 16 µM (inactive) | 38.1 µM (inactive) | 11.1 µM (inactive) | 15.9 µM (inactive) | 16.2 µM (inactive) | 16.9 µM (inactive) | 3.85 µM (inactive) | 7.29 µM (inactive) | 4.88 µM (inactive) | 16.9 µM (inactive) | 11.8 µM (inactive) | 15 µM (inactive) | – |
| C/C(=N\NC(=S)Nc1ccc([N+](=O)[O-])cc1)c1nc2cccnc2[nH]1 | 0.278 µM (active) | 0.348 µM (active) | 1.08 µM (active) | 1 µM (active) | 0.327 µM (active) | 0.352 µM (active) | 0.442 µM (active) | 0.906 µM (active) | 1.31 µM (inactive) | 1.26 µM (inactive) | 1.78 µM (inactive) | 1.21 µM (inactive) | 0.379 µM (active) | 0.615 µM (active) | 0.652 µM (active) | 0.611 µM (active) | 1.51 µM (inactive) | 1.38 µM (inactive) | 0.452 µM (active) | – |
| C=CCN(c1cc(O)c2c(c(C)cn2S(=O)(=O)c2ccccc2)c1[N+](=O)[O-])S(C)(=O)=O | > 100 µM (inactive) | > 100 µM (inactive) | > 100 µM (inactive) | > 100 µM (inactive) | > 100 µM (inactive) | 48.5 µM (inactive) | 69.2 µM (inactive) | > 100 µM (inactive) | > 100 µM (inactive) | > 100 µM (inactive) | 36.9 µM (inactive) | > 100 µM (inactive) | 63.8 µM (inactive) | > 100 µM (inactive) | > 100 µM (inactive) | > 100 µM (inactive) | > 100 µM (inactive) | > 100 µM (inactive) | > 100 µM (inactive) | – |
| COc1ccc(C(=O)C#Cc2cnc(OC)nc2OC)cc1 | 2.74 µM (inactive) | 1.56 µM (inactive) | 1.64 µM (inactive) | 1.19 µM (inactive) | 1.67 µM (inactive) | 12.4 µM (inactive) | 0.147 µM (active) | 0.571 µM (active) | 1.42 µM (inactive) | 1.36 µM (inactive) | 1.58 µM (inactive) | 2.31 µM (inactive) | 2.65 µM (inactive) | 1.22 µM (inactive) | 1.63 µM (inactive) | 0.778 µM (active) | 1.76 µM (inactive) | 2.22 µM (inactive) | 1.6 µM (inactive) | – |
| O=C(O)c1ccc(C(=O)c2ccccc2)c(C(=O)O)c1 | > 100 µM (inactive) | > 100 µM (inactive) | > 100 µM (inactive) | > 100 µM (inactive) | > 100 µM (inactive) | > 100 µM (inactive) | > 100 µM (inactive) | > 100 µM (inactive) | > 100 µM (inactive) | > 100 µM (inactive) | > 100 µM (inactive) | > 100 µM (inactive) | > 100 µM (inactive) | > 100 µM (inactive) | > 100 µM (inactive) | > 100 µM (inactive) | > 100 µM (inactive) | > 100 µM (inactive) | > 100 µM (inactive) | – |
| CC(=O)NC1C(OCc2ccccc2)OC(CO)C(O)C1OC(C)C(=O)N[C@@H](C)C(=O)N[C@H](CCC(=O)NCCNCCNc1c2ccccc2nc2cccc([N+](=O)[O-])c12)C(N)=O (some centres not stated) | 0.164 µM (active) | 0.11 µM (active) | 0.336 µM (active) | 0.0634 µM (active) | 0.135 µM (active) | 0.207 µM (active) | 0.136 µM (active) | 0.0266 µM (active) | 0.048 µM (active) | 0.0993 µM (active) | 0.0708 µM (active) | 0.0241 µM (active) | < 0.01 µM (active) | 0.0369 µM (active) | 0.308 µM (active) | < 0.0195 µM (active) | 0.0244 µM (active) | 0.205 µM (active) | 0.0698 µM (active) | – |
| c1ccc(C(c2ccccc2)c2ccccn2)cc1 | > 100 µM (inactive) | > 100 µM (inactive) | > 100 µM (inactive) | > 100 µM (inactive) | > 100 µM (inactive) | > 100 µM (inactive) | > 100 µM (inactive) | > 100 µM (inactive) | > 100 µM (inactive) | > 100 µM (inactive) | – | – | > 100 µM (inactive) | > 100 µM (inactive) | – | – | – | 52.5 µM (inactive) | – | > 100 µM (inactive) |
| CCCCCc1cc2cc3c(c(O)c2c(=O)[nH]1)C1(CCC3)C(=O)c2c(O)ccc(O)c2C1=O | > 100 µM (inactive) | 59.3 µM (inactive) | > 100 µM (inactive) | > 100 µM (inactive) | 38.6 µM (inactive) | > 100 µM (inactive) | > 100 µM (inactive) | 56 µM (inactive) | 66.7 µM (inactive) | > 100 µM (inactive) | > 100 µM (inactive) | > 100 µM (inactive) | > 100 µM (inactive) | > 100 µM (inactive) | > 100 µM (inactive) | > 100 µM (inactive) | > 100 µM (inactive) | 58.2 µM (inactive) | > 100 µM (inactive) | – |
